Values of other authors as cited in patent publication US20220347313A1, “Combination Anti-CD30 ADC, Anti-PD-1 and Chemotherapeutic for Treatment of Hematopoietic Cancers” (SEAGEN, INC., priority 2019, published 2022).

Test system: CD28, ICOS, CTLA-4 and BTLA

nivolumab
binding specificity for PD-1 versus related CD28 family members: binds specifically to PD-1 and not to related members of the CD28 family
